{
  "source": "patent US20120322842A1",
  "about": "“HETEROCYCYL-SUBSTITUTED-ALKYLAMINOPHENYL DERIVATIVES, THEIR PREPARATION AND USE AS MEDICAMENTS” (LABORATORIOS DEL DR. ESTEVE, S.A., priority 2009, published 2012)",
  "data": [
    {"molecular_target": "T1, Cloned Human Serotonin Receptor, Subtype 7 (h5HT7) (Homo sapiens, UniProt P34969)", "T1 construct": "purchased PerkinElmer 6120512; host or cells: CHO cells", "T1 sequence (P34969 whole entry)": "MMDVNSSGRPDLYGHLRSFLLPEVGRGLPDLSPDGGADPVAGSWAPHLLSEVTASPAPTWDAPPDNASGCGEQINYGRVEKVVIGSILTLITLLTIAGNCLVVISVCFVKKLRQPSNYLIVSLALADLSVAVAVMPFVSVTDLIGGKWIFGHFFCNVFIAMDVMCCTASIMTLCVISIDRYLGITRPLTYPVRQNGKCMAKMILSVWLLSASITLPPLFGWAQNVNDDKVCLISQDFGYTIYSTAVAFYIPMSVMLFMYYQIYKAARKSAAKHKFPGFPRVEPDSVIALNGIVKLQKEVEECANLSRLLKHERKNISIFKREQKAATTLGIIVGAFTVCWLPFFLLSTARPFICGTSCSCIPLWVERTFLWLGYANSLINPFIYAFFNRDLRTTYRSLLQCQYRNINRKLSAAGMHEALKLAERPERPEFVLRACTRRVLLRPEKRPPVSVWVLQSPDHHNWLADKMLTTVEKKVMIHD", "assay": "Radioligand binding assay, [125I]LSD, cloned human 5-HT7 receptor expressed in CHO cells (Flashplate)", "conditions": "not given", "experimental": "(§1) Radioligand binding assays were performed using the Cloned Human Serotonin Receptor, Subtype 7 (h5HT7), expressed in CHO cells, coated on Flashplate (Basic FlashPlate Cat.: SMP200) from PerkinElmer (Cat.: 6120512). The protocol assay was essentially the recommended protocol in the Technical Data Sheet by PerkinEmer Life and Analytical Sciences. The Mass membrane protein/well was typically […] and the Receptor/well was about 9-10 fmoles. The Flashplate were let equilibrate at room temperature for one hour before the addition of the components of the assay mixture. The binding buffer was: 50 mM Tris-HCl, pH 7.4, containing 10 mM MgCl2, 0.5 mM EDTA and 0.5% BSA. The radioligand was [^125I]LSD at a final concentration of 0.82 nM. Nonspecific binding was determined with 50 µM of Clozapine. The assay volume was 25 l. TopSeal-A were applied onto Flashplate microplates and they were incubated at room temperature for 240 minutes in darkness. The radioactivity were quantified by liquid scintillation spectrophotometry (Wallac 1450 Microbeta Trilux) with a count delay of 4 minutes prior to counting and a counting time of 30 seconds per well. Competition binding data were analyzed by using the LIGAND program (Munson and Rodbard, LIGAND: A versatile, computerized approach for characterization of ligandbinding systems. Anal. Biochem. 107: 220-239, 1980) and assays were performed in triplicate determinations for each point.", "units": {"Ki": "nM"}, "values": [
      {"smiles": "CCn1nc(C)c(C)c1-c1ccc(OC)c(CCN(C)C)c1", "note": "[Example 28, 2-(5-(1-ethyl-3,4-dimethyl-1H-pyrazol-5-yl)-2-methoxyphenyl)-N,N-dimethyl ethanamine]", "Ki": 81.9},
      {"smiles": "COc1ccc(-c2c(C)c(C)nn2C(C)C)cc1CCN(C)C", "note": "[Example 31, 2-(5-(1-isopropyl-3,4-dimethyl-1H-pyrazol-5-yl)-2-methoxyphenyl)-N,N-dimethyl ethanamine]", "Ki": 83.1},
      {"smiles": "CCc1c(C)nn(C)c1-c1ccc(OC)c(CCN(C)C)c1", "note": "[Example 3, 2-(5-(4-ethyl-1,3-dimethyl-1H-pyrazol-5-yl)-2-methoxyphenyl)-N,N-dimethyl ethanamine]", "Ki": 599},
      {"smiles": "COc1ccc(-c2c(C)c(C)nn2C)cc1CCN(C)C", "note": "[Example 9, 2-(2-methoxy-5-(1,3,4-trimethyl-1H-pyrazol-5-yl)phenyl)-N,N-dimethylethanamine]", "Ki": "113 ± 2.6"}
    ]},
    {"molecular_target": "T1, Cloned Human Serotonin Receptor, Subtype 7 (h5HT7)", "assay": "Radioligand binding assay, [125I]LSD, cloned human 5-HT7 receptor expressed in CHO cells (Flashplate)", "conditions": "h5HT7 expressed in CHO cells; radioligand [125I]LSD 0.82 nM; nonspecific binding with clozapine; triplicate determinations; read-out: 5-HT7 Ki", "experimental": "as §1", "units": {"Ki": "nM"}, "values": [
      {"smiles": "CCc1c(C)nn(C)c1-c1cccc(CCN(C)C)c1", "note": "[Example 2, 2-(3-(4-ethyl-1,3-dimethyl-1H-pyrazol-5-yl)phenyl)-N,N-dimethylethanamine]", "Ki": 597},
      {"smiles": "Cc1nn(C(C)C)c(-c2ccc(O)c(CCN(C)C)c2)c1C", "note": "[Example 32, 2-(2-(dimethylamino)ethyl)-4-(1-isopropyl-3,4-dimethyl-1H-pyrazol-5-yl)phenol]", "Ki": 150},
      {"smiles": "Cc1nn(C(C)C)c(-c2cccc(CCN(C)C)c2)c1C", "note": "[Example 30, 2-(3-(1-isopropyl-3,4-dimethyl-1H-pyrazol-5-yl)phenyl)-N,N-dimethylethanamine]", "Ki": 300},
      {"smiles": "Cc1nn(C)c(-c2ccc(O)c(CCN(C)C)c2)c1C", "note": "[Example 10, 2-(2-(dimethylamino)ethyl)-4-(1,3,4-trimethyl-1H-pyrazol-5-yl)phenol]", "Ki": 102},
      {"smiles": "Cc1nn(C)c(-c2cccc(CCN(C)C)c2)c1C", "note": "[Example 8, N,N-dimethyl-2-(3-(1,3,4-trimethyl-1H-pyrazol-5-yl)phenyl)ethanamine]", "Ki": "261 ± 102"},
      {"smiles": "COc1ccc(-c2c(-c3ccccc3)c(C)nn2-c2ccccc2)cc1CCN(C)C", "note": "[Example 19, 2-(2-methoxy-5-(3-methyl-1,4-diphenyl-1H-pyrazol-5-yl)phenyl)-N,N-dimethyl ethanamine]", "Ki": "447 ± 64.8"},
      {"smiles": "Cc1nn(-c2ccccc2)c(-c2ccc(O)c(CCN(C)C)c2)c1C", "note": "[Example 23, 4-(3,4-dimethyl-1-phenyl-1H-pyrazol-5-yl)-2-(2-(dimethylamino)ethyl)phenol]", "Ki": 611},
      {"smiles": "Cc1nn(CC(F)(F)F)c(-c2ccc(O)c(CCN(C)C)c2)c1C", "note": "[Example 35, 4-(3,4-dimethyl-1-(2,2,2-trifluoroethyl)-1H-pyrazol-5-yl)-2-(2-(dimethylamino)ethyl)phenol]", "Ki": 320},
      {"smiles": "CNCCc1cc(-c2c(C)c(C)nn2C)ccc1O", "note": "[Example 11, 2-(2-(methylamino)ethyl)-4-(1,3,4-trimethyl-1H-pyrazol-5-yl)phenol]", "Ki": "23.5 ± 5.2"},
      {"smiles": "Cc1nn(CC(F)(F)F)c(-c2cccc(CCN(C)C)c2)c1C", "note": "[Example 33, 2-(3-(3,4-dimethyl-1-(2,2,2-trifluoroethyl)-1H-pyrazol-5-yl)phenyl)-N,N-dimethyl ethanamine]", "Ki": 527},
      {"smiles": "COc1ccc(-c2c(C)c(C)nn2-c2ccccc2)cc1CCN(C)C", "note": "[Example 22, 2-(5-(3,4-dimethyl-1-phenyl-1H-pyrazol-5-yl)-2-methoxyphenyl)-N,N-dimethyl ethanamine]", "Ki": 391},
      {"smiles": "COc1ccc(-c2c(C)c(C)nn2CC(F)(F)F)cc1CCN(C)C", "note": "[Example 34, 2-(5-(3,4-dimethyl-1-(2,2,2-trifluoroethyl)-1H-pyrazol-5-yl)-2-methoxyphenyl)-N,N-dimethyl ethanamine]", "Ki": 146},
      {"smiles": "COc1ccc(-c2c3c(nn2-c2ccccc2)CCCC3)cc1CCN(C)C", "note": "[Example 25, 2-(2-methoxy-5-(2-phenyl-4,5,6,7-tetrahydro-2H-indazol-3-yl)phenyl)-N,N-dimethyl ethanamine]", "Ki": 420},
      {"smiles": "CCc1c(C)nn(C)c1-c1ccc(O)c(CCN(C)C)c1", "note": "[Example 4, 2-(2-(dimethylamino)ethyl)-4-(4-ethyl-1,3-dimethyl-1H-pyrazol-5-yl)phenol]", "Ki": "577 ± 81.6"},
      {"smiles": "CCn1nc(C)c(C)c1-c1ccc(O)c(CCN(C)C)c1", "note": "[Example 29, 2-(2-(dimethylamino)ethyl)-4-(1-ethyl-3,4-dimethyl-1H-pyrazol-5-yl)phenol]", "Ki": 102}
    ]}
  ]
}
